# Test results as given in patent EP0937459A2, “Pharmaceutical compositions for the treatment of ischemic brain damage” (Sumitomo Pharmaceuticals Company, Limited, priority 1998, dated 1999).
# Experiments:
# [1] = system: rats with transient ischemia; assay: Brain edema (brain water content) in rats with transient ischemia; type: in vivo
# Description: Male rats were anesthetized with halothane mixed with nitrous oxide. The cervical region was dissected to ligate the left external carotid artery and the left common carotid artery. Occlusion was induced for 2 hours in the control section at the origin of the middle cerebral artery by inserting a nylon thread through the left internal carotid artery to reach the left middle deutocerebral artery. Reperfusion through the middle cerebral artery was established by withdrawing the nylon thread. The test compound was intravenously given to the animals an hour after the occlusion in a volume of 1 ml/kg. As the test compound, a solution of Compound 1 (0.3 mg/ml or 1 mg/ml) in 8% polyethylene glycol #400 was used. For control, the vehicle alone (8% polyethylene glycol #400) containing no active compound was used. The animals were decapitated 4 hours after reperfusion and the brain was removed. Coronal sections of 4 mm thick were prepared in the ipsilateral hemisphere from 1 mm anterior to 3 mm posterior of the bregma. After the wet weight (W) of each section was weighed, the section was dried in an oven at 110°C for 24 hours and then its dry weight (D) was weighed. The brain water content (WC) was calculated according to the following equation. WC = (W - D) / W x 100 [formula] In the normal control group, the brain water content was 79.9 ± 0.1% (mean ± standard error in 15 cases); however, by reperfusion following the occlusion, the brain water content in the control group increased to 83.3 ± 0.3% (mean + standard error in 15 cases).
# (§1) Compound 2 was elucidated for the effect on brain edema in a manner similar to that of Example 4. The test compound was intravenously given immediately after the reperfusion to the animals in a volume of 1 ml/kg. As the test compound, a solution of Compound 2 (1 mg/ml) in 8% polyethylene glycol #400 was used. For control, the vehicle (8% polyethylene glycol #400) containing no active compound was used.
# as §1, with “3” for “2”, “3 (0.3 mg/ml or 1” for “2 (1”, “vehicle alone” for “vehicle”
# transient ischemic rats = assay: Infarcted area in rats with transient ischemia (2 h middle cerebral artery occlusion, then reperfusion); type: in vivo; settings: 1 mg/ml
# Description: Male rats were anesthetized with halothane mixed with nitrous oxide. The cervical region was dissected to ligate the left external carotid artery and the left common carotid artery. Occlusion was induced for 2 hours in the control section at the origin of the middle cerebral artery by inserting a nylon thread through the left internal carotid artery to reach the left middle deutocerebral artery. Reperfusion through the middle cerebral artery was established by withdrawing the nylon thread. The test compound was intravenously given to the animals in a volume of 1 ml/kg at 30 minutes after the occlusion. As the test compound, a solution of Compound 1 (1 mg/ml) in 8% polyethylene glycol #400 was used. For control, the vehicle (8% polyethylene glycol #400) containing no active compound was used. The animals were decapitated 22 hours after reperfusion and the brain was removed. Coronal sections of 2 mm thick were prepared in the ipsilateral hemisphere from 3 mm anterior to 5 mm posterior of the bregma. The sections were stained with 2,3,5-triphenyltetrazolium chloride for photographing. The photographs were scanned with a scanner (GT-8000, Epson) for computer-based image analysis (software used, Ep Scan Mac 1. 40). The rate of the infarcted area of each section in the left hemisphere was analyzed by a computer (software used, NIH image 1.59). The pharmacological effect was evaluated by mean percentage of the infarcted areas in the five sections obtained in one rat.
# as §1, with “the infarcted area” for “brain edema”, “1.” for “4.”, “intraperitoneally” for “intravenously”, “30 minutes before” for “immediately after”, “occlusion” for “reperfusion”
# Compound 3 was elucidated for the effect on the infarcted area in a manner similar to that of Example 1. […]
# ischemic animal models = ischemic animal models in vivo; literature; cited from earlier work
# cultured glial cells = settings: Kempski et al., Stroke 19, 385-392, 1988; cited from earlier work
smiles,measurement,setting,value
"Cn1c(C(=O)N=C(N)N)cc2ccccc21 [Compound 1, 1-methyl-2-indoloylguanidine methanesulfonate]",brain water content,"[1]; 0.3 mg/kg intravenously an hour after the occlusion, 4 hours after reperfusion, mean ± standard error in 16 cases, normal control 79.9 ± 0.1%, control group 83.3 ± 0.3%, p<1%",82.6 ± 0.3%
same,brain water content,"[1]; 1 mg/kg intravenously an hour after the occlusion, 4 hours after reperfusion, mean ± standard error in 16 cases, normal control 79.9 ± 0.1%, control group 83.3 ± 0.3%, p<1%",82.2 ± 0.3%
same,mean infarcted area observed in each section,"transient ischemic rats; 1 ml/kg intravenously 30 minutes after the occlusion, 22 hours after reperfusion, mean ± standard error in 8 cases, control group 47.9 ± 3.6%, p<5%",35.4 ± 3.1%
"Cc1cccc2c1cc(C(=O)N=C(N)N)n2C [Compound 2, 1,4-dimethyl-2-indoloylguanidine methanesulfonate]",brain water content,"[1]; 1 mg/ml, 1 ml/kg intravenously immediately after the reperfusion, mean ± standard error in 11 cases, normal control 78.7 ± 0.1%, control group 81.9 ± 0.4%, no significant effect",82.0 ± 0.4%
same,infarcted area observed in each section,"transient ischemic rats; 1 ml/kg intraperitoneally 30 minutes before the occlusion, mean ± standard error in 5 cases, control group 49.5 ± 4.1%, p<1%",26.6 ± 3.1%
"N=C(N)NC(=O)c1cc2c(Cl)ccc3c2n1CCCCC3=O [Compound 3, N-(aminoiminomethyl)-5,6,7,8-tetrahydro-11-chloro-8-oxo-4H-azocino[3,2,1-hi]indole-2-carboxamide methanesulfonate monohydrate]",brain water content,"[1]; 0.3 mg/kg intravenously immediately after the reperfusion, mean ± standard error in 9 cases, normal control 79.2 ± 0.2%, control group 82.8 ± 0.3%, tendency",82.4 ± 0.3%
same,brain water content,"[1]; 1 mg/kg intravenously immediately after the reperfusion, mean ± standard error in 11 cases, normal control 79.2 ± 0.2%, control group 82.8 ± 0.3%, tendency",81.7 ± 0.4%
same,infarcted area observed in each section,"transient ischemic rats; 1 ml/kg intraperitoneally immediately after the occlusion, mean ± standard error in 13 cases, control group 55.4 ± 2.1%, p<5%",45.2 ± 2.2%
CC(=O)Nc1nnc(S(N)(=O)=O)s1 [acetazolamide],effect of preventing cerebral edema,ischemic animal models,no significant effect of preventing cerebral edema
same,cell swelling induced by acid loading,cultured glial cells,cell swelling was prevented
N=C(N)NC(=O)c1nc(Cl)c(N)nc1N [amiloride],cell swelling induced by acid loading,cultured glial cells,attenuated cell swelling
